The text below walks through data of US7318917B2, “Rapid assays for neurotransmitter transporters” (Vanderbilt University, priority 2002, dated 2008).

The target of test [1] is NET (Homo sapiens, UniProt P23975). Kind of test: [3H]NE accumulation (radiolabeled transport assay) in hNET-transfected HEK-293 cells. The conditions noted are these: Cheng-Prusoff correction, non-specific by 10 μM desipramine, N=5, mean±S.E.M., read-out: Ki, inhibition of [3H]NE accumulation. Set-up: expressed in transfected cells. Format: cell-based. The method, then:
FIG. 1. MPP^+ and ASP^+ inhibit NE accumulation. [^3H]NE accumulation was measured in the hNET-transfected HEK-293 cells in the presence of increasing concentrations of ASP^+ or MPP^+ and normalized to similar data in the absence of an inhibitor. […]. The data were fit to NE transport remaining by the equation y=100/(1+([I]/IC50)^n), where [I] is the concentration of ASP^+ or MPP^+ and Ki values were determined using Cheng-Prusoff correction for substrate concentration. […] Values are represented as means±S.E.M., N=5.
All accumulation studies were performed at room temperature (22° C.) unless otherwise indicated. HEK-hNET cells were plated on poly-L-lysine coated 24-well tissue culture plates at 10^5 cells per well three days prior to performing transport assays. The cells were at approximately 90% confluence on the third day. The medium was removed by aspiration. Cells were then pre-incubated for 10 min in Krebs-Ringer's-Hepes (KRH: in mM 130 NaCl, 1.3 KCl, 2.2 CaCl2, 1.2 MgSO4, 1.2 KH2PO4, 10 Hepes, and 1.8 g/L glucose, pH 7.4) medium with or without 10 μM desipramine. […]. Pargyline (10 μM) and ascorbic acid (10 μM) were added to prevent metabolism and oxidation of NE, respectively. The assay mixture was aspirated after 10 minutes and cells were washed three times with 4° C. […] Accumulated [^3H]NE was determined by liquid scintillation of 1% (w/v) sodium dodecylsulphate solubilized cells. […]

Test [2] concerns the target T1, SERT (Homo sapiens, UniProt P31645).
T1 construct: expressed in transfected cells
As to the kind of experiment: ASP+ uptake assay on FLEXstation, SERT-transfected HEK-293 cells. Format: cell-based. The conditions noted are these: FIG. 10C. The method, then:
HEK-293 cells (American Type Culture Collection, Manassas, Va.) and HEK-293 cells stably transfected with SERT, NET, or DAT (Qian et al, 1997) were maintained in monolayer culture at 37° C., 5% CO2 in Dulbecco's modified Eagle's medium (DMEM) containing 10% fetal bovine serum, 2 mM glutamine, 100 units/ml penicillin, and 100 μg/ml streptomycin. Medium for the transfected lines was supplemented with G418 (250 μg/ml). Trypsin, glutamine, penicillin, streptomycin, G418, and phosphate-free DMEM were purchased from Life Technologies, Inc. or obtained from the Vanderbilt Media Core. For all transport assays, cells were plated on poly-D-lysine (0.1 mg/ml)-coated (0.1 mg/ml)-coated 96-well plates. […]
To limit the time delay between the addition of ASP^+ and the measurement of accumulation of ASP^+ during the kinetic assays, plates were divided in half and assayed one half at a time. […] After incubation, ASP^+ was added to the first 6 columns in 20 μL aliquots at indicated concentrations and accumulated fluorescence measured and recorded over time by the FLEXStation ultilizing SoftMax Pro Software. Then, ASP^+ was added to the last 6 columns and fluorescence accumulation measured and recorded. […]
Endpoint assays were conducted to evaluate the sensitivity of ASP^+ uptake to transporter antagonists. […] ASP^+ accumulation was measured after 10 minutes. […]

The structures appear in SMILES notation.

Sequence of NET (P23975 whole entry): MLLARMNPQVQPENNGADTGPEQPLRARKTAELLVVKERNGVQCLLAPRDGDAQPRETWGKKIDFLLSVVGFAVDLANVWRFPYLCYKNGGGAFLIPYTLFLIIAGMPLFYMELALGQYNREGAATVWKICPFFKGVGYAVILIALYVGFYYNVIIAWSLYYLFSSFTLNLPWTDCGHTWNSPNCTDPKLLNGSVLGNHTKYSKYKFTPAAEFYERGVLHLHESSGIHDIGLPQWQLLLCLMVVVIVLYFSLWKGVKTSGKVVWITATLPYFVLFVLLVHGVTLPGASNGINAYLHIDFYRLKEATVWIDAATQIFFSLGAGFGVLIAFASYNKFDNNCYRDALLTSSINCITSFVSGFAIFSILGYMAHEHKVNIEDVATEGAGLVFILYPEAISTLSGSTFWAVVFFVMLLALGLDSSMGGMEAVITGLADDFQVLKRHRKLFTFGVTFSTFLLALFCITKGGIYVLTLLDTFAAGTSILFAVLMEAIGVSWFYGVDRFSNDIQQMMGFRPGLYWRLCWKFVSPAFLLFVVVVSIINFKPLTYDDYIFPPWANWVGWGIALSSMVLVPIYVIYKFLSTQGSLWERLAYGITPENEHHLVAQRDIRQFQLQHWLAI
T1 sequence (P31645 whole entry): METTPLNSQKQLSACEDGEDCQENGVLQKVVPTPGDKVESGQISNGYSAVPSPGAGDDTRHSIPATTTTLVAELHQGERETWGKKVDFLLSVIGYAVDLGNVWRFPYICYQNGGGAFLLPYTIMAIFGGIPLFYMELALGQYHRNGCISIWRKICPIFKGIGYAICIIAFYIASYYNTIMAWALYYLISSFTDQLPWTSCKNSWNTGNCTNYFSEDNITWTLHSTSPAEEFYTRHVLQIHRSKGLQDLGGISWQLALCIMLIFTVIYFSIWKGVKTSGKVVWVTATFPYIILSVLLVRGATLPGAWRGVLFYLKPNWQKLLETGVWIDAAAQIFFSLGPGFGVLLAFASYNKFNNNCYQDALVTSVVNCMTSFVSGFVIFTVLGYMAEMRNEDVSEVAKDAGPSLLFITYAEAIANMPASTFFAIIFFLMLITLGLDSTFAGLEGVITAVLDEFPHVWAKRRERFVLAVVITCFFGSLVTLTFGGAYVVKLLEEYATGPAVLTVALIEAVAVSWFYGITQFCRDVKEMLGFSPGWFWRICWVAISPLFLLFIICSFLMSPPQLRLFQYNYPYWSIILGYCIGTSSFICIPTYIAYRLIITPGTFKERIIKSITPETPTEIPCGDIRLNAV

In general, Ki refers to the dissociation constant of the complex between target and ligand, obtained from inhibition or displacement. Turning to `CN(C)c1ccc(C=Cc2cc[n+](C)cc2)cc1` [ASP^+, 4-(4-dimethylaminostyrl)-N-methylpyridinium], in test [1], the Ki turned out to be 780 ± 77 nM. In test [2], the “concentration-response of ASP+ accumulation, SERT” value is recorded as “concentration-dependent accumulation”.
